Tests used:
[1] = target: T1, transcription factor binding to CRE (ATF2 containing complex II) (Homo sapiens, UniProt P15336); experiment: EMSA, agents added directly to binding reaction; settings: for transcription factor binding to CRE: DTT 2.5 mM; for transcription factor binding to CRE, effect with GSH instead of DTT: GSH 3.0 mM as reducing agent
T1 construct: endogenous in cells; host or cells: M1619 human melanoma cells, crude nuclear protein extract
T1 sequence (P15336 1-505): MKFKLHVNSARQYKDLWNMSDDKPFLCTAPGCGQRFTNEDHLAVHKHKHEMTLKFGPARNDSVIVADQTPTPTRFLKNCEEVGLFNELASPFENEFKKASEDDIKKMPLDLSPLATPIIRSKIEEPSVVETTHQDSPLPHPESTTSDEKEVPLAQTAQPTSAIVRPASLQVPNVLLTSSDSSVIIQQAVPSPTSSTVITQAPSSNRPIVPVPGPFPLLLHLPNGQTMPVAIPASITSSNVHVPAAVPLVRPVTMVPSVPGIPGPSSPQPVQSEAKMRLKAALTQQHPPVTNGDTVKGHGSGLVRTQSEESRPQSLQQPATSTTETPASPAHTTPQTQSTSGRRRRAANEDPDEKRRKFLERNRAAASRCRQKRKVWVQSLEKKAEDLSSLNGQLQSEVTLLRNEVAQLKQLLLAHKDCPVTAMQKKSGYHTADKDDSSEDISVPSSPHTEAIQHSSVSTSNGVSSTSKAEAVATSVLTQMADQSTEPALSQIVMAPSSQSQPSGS
Protocol: This dose was chosen to approximate the steady state plasma and tissue concentrations of drug in human subjects on chronic therapy with this agent. Disulfiram was solubilized in dimethylsulfoxide (DMSO) so that the final concentration of DMSO was less than 0.3-0.5%. Equal volumes of DMSO were added to control experiments. Nuclear protein was harvested and electrophoretic mobility gel shift assays were performed using DNA consensus binding sequence for the cyclic-AMP responsive element (CRE) as outlined below. […] EMSAs were performed using consensus oligonucleotides ([NT] and 3'-[NT]5') for the cyclic-AMP responsive element CRE (ProMega, Madison, Wis.), end-labeled by phosphorylation with [γ^32P]-ATP and T4 polynucleotide kinase. DNA-protein binding reactions were performed with 2 μg of nuclear protein (as determined by the Pierce method) and 30-80,000 cpm of ^32P-end-labelled double-stranded DNA probe in 10 mM Tris-HCl, pH 7.5, 50 mM NaCl, 0.5 mM EDTA, 0.5 mM DTT (except where indicated), 1 mM MgCl2, 50 μg/ml poly dI-dC, and 4% glycerol. All components of the binding reaction with the exception of labeled probe were combined and incubated at room temperature for 10 minutes before addition of labeled probe and incubation for an additional 20 minutes. To determine if inhibition of transcription factor binding to CRE could be attributed to direct transcription factor modification by disulfiram and copper, we studied the effect of adding each agent directly to the binding reaction performed with nuclear protein from untreated […] cells. Therein electrophoretic mobility shift assays (EMSAs) were performed showing that addition of disulfiram plus copper to the binding reaction reduces DNA binding to CRE. […] In lanes 1-5, DTT (2.5 mM) was added to the binding reaction as a reducing agent, whereas in lane 6-9, GSH (3.0 mM) was used.

NF-κB = experiment: EMSA of treated cells, NF-κB DNA binding; format: cell-based, human; settings: disulfiram plus copper; 12 hours; data not shown
Protocol: Nuclear protein was isolated and DNA binding reactions were performed as previously described in detail (See, […], et al., “Dehydroepiandrosterone and analogs inhibit DNA binding of AP-1 and airway smooth muscle proliferation,” J. Pharmacol. Exper. Ther. 285:[…] (1998); T. Kennedy, et al., “Copper-dependent inflammation and nuclear factor-κB activation by particulate air pollution,” Am. J. Respir. Cell Mol. Biol. 19:366-378 (1998)). Monolayers were washed twice in cold DPBS and equilibrated 10 minutes on ice with 0.7 ml cold cytoplasmic extraction buffer, CEB (10 mM Tris, pH 7.9, 60 mM KCl, 1 mM EDTA, 1 mM DTT) with protease inhibitors, PI (1 mM Pefabloc, 50 μg/ml antipain, 1 μg/ml leupeptin, 1 μg/ml pepstatin, 40 μg/ml bestatin, 3 μg/ml E-64 and 100 μg/ml chymostatin). The detergent Nonidet P-40 (NP-40) was added to a final concentration of 0.1% and cells were dislodged with a cell scraper. Nuclei were pelleted by centrifugation and washed with CEB/PI. […] Competition experiments were performed with 10×unlabeled wild-type oligonucleotide sequences for CRE or […] and 3'-[NT]5'), added before labeled probe. Supershift experiments were performed by incubating the binding reaction with 1 μg of supershifting antibody prior to electrophoresis. […] Gels were dried and analyzed by autoradiography at -80° C. using an image intensifier screen. […]

cyclin B1 = experiment: Immunoblot for cyclin B1; format: cell-based, human; settings: disulfiram plus copper; data not shown
Protocol: Cells were lysed and proteins were isolated and quantitated by immunoassay as previously detailed using 2 μg/ml of primary rabbit polyclonal antibodies against human bcl-2, p53, p21^WAF1/CiP1, cyclin A and cyclin B1, and peroxidase-labeled donkey polyclonal anti-rabbit IgG. Cells were placed on ice, washed twice with cold DPBS, scraped into 0.5 ml boiling buffer (10% [vol/vol] glycerol and 2% [wt/vol] sodium dodecyl sulfate [SDS] in 83 mM Tris, pH 6.8) and sheared by four passages through a pipette. Aliquots were removed for protein determination, using the BCA protein assay (Pierce). After 10% β-mercaptoethanol and 0.05% bromophenol blue were added, lysates were boiled for 5 min and stored at −80° C. until immunoblotting was performed. Proteins in defrosted samples were separated by SDS-polyacrylamide gel electrophoresis on 12% polyacrylamide gels (15 μg protein/lane) and electrotransferred to 0.45 μm Hybond ECL nitrocellulose membranes (Amersham Life Sciences) using the wet transblot method in transfer buffer (0.025 M Tris, 0.192 M glycine, 2.6 mM SDS, and 20%[vol/vol] methanol; pH 8.8) at 100 volts for 1 hour. […] Immunoblots were rinsed again as above and detected via an enhanced chemiluminescence method (ECL Western blotting detection system, Amersham Life Science, Buckinghamshire, England). […]

SMILES: CCN(CC)C(=S)SSC(=S)N(CC)CC [Disulfiram, tetraethylthiuram disulfide]
- transcription factor binding to CRE ([1]; disulfiram 5 μM alone added to binding reaction): reduced
- transcription factor binding to CRE, effect with GSH instead of DTT ([1]; disulfiram 5 μM alone): more pronounced
- transcription factor binding to CRE, effect with GSH instead of DTT ([1]; disulfiram 5 μM and 1.6 μM CuSO4): more pronounced
- transcription factor binding to CRE ([1]; disulfiram 5 μM and 1.6 μM CuSO4 added to binding reaction): reduced
- DNA binding of NF-κB (NF-κB): inhibited
- levels of B1 (cyclin B1): remained unchanged

Reference: patent publication US6548540B2, “Method of treating cancer using dithiocarbamate derivatives” (Charlotte-Mecklenburg Hospital Authority, priority 1998, dated 2003)
